Values of other authors in PMC11125333, “Self-Immolative Domino Dendrimers as Anticancer-Drug Delivery Systems: A Review” (Pharmaceutics, 2024).

Set-up: method as in PMID 25924099
Conditions: UV irradiation at 365 nm

Structure (SMILES): CC[C@@]1(O)C(=O)OCc2c1cc1n(c2=O)Cc2cc3ccccc3nc2-1 [CAMP, camptothecin]
- effect of UV irradiation on cytotoxicity / cell-killing efficacy: did not increase
